What was measured:
[1] = target: T1, human CCR3 (Homo sapiens, UniProt P51677); assay: binding of [125I]-human eotaxin to human CCR3 (SPA, membranes of RBL-2H3 cells expressing CCR3); details: [125I]-human eotaxin 50 pM, 4 hours at room temperature; read-out: IC50 (concentration of test compound at which 50% inhibition of eotaxin binding to CCR3 occurs)
T1 construct: expressed in transfected cells; membranes
T1 sequence (P51677 1-355): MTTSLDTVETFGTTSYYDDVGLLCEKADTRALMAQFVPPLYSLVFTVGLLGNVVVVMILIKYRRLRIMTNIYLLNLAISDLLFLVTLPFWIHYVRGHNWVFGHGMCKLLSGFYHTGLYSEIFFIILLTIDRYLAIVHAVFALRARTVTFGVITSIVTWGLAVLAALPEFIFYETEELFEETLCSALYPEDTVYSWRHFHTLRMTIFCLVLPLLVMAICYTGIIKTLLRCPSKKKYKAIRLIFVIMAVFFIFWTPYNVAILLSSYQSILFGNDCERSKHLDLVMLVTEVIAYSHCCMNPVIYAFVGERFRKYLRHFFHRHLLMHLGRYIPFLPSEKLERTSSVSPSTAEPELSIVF
Experimental: In this assay the effect of the compounds of the present invention on the binding of human eotaxin to human CCR3 is determined. Recombinant cells expressing human CCR3 are captured by wheatgerm agglutinin (WGA) polyvinyltoluidene (PVT) SPA beads (available from Amersham), through a specific interaction between the WGA and carbohydrate residues of glycoproteins on the surface of the cells. [^125I]-human eotaxin (available from Amersham) binds specifically to CCR3 receptors bringing the [^125I]-human eotaxin in close proximity to the SPA beads. Emitted â-particles from the [^125I]-human eotaxin excite, by its proximity, the fluorophore in the beads and produce light.
Preparation of Assay Buffer 5.96 g HEPES and 7.0 g sodium chloride are dissolved in distilled H2O and 1 M aq. CaCl2 (1 ml) and 1 M aq. MgCl2 (5 ml) are added. The pH is adjusted to 7.6 with NaOH and the solution made to a final volume of 1 L using distilled H2O. 5 g of bovine serum albumin and 0.1 g NaN3 are dissolved in the solution and the resulting buffer stored at 4° C. […]
The assay is performed in a final volume of 250 μl per well of an Optiplate™ microplate (ex Canberra Packard). […] The resulting scintillations are counted using a Canberra Packard TopCount™ scintillation counter, each well being counted for 1 minute. […]

Row | melting point | IC50 [1] | SMILES
1 | 83 to 85 °C |  | O=C(C=C1CCN(Cc2ccc(F)cc2)CC1)NCc1ccc(F)c(F)c1 [Example 1, N-(3,4-Difluoro-benzyl)-2-[1-(4-fluoro-benzyl)-piperidin-4-ylidene]-acetamide]
2 | 117 to 120 °C | ~200 nM | O=C(C=C1CCN(CCc2ccc(F)cc2)CC1)NCc1ccc(F)c(F)c1 [Example 17, N-(3,4-Difluoro-benzyl)-2-{1-[2-(4-fluoro-phenyl)-ethyl]-piperidin-4-ylidene}-acetamide]
